The structures appear in SMILES notation. Where a name gives a salt, the structure may show the parent alone. Marks after values point to notes of the source that are not given here.

Test [1] relates to ammonia-induced coughing response in mice. In words: cough response of mice induced by ammonia water. The class given is in vivo, KM mice. As to the method:
50 KM mice, weighing 18-22g, of both sexes were used and randomly divided into 5 groups, a model control group, a Formula I compound group (15 mg/kg, in terms of free base), a Formula V compound group (15 mg/kg, in terms of free base), a Comparative Example group (15 mg/kg, in terms of free base), and an ambroxol hydrochloride group (15 mg/kg, in terms of free base), 10 animals in each group, and were administered intravenously (dissolved in normal saline by adjusting pH or directly dissolved in normal saline). 30 minutes after the administration, the mice were put in an inverted beaker with a volume of 500ml and a cotton ball inside. Timing was started once 0.2ml of concentrated ammonia/mouse was added onto the cotton ball. The number of coughs of each animal within 3 minutes was observed and recorded. Here, the medicament used for the Comparative Example group was the 4-[(2-amino-3,5-dibromobenzyl)amino]adamantan-1-ol hydrochloride (racemic) prepared in Comparative Example 1. Table 3. Effect on ammonia-induced coughing response in mice (x ± s, n=10)

Test [2] deals with expectoration amount by rat capillary tube expectoration. In words: rat capillary sputum excretion test. The format is in vivo, SD rats. The note with it: length of liquid in capillary tube within 90 minutes; 15 mg/kg in terms of free base via tail vein, 30 minutes after administration; n=10; vehicle control 22.7±4.41; hydrochloride, 15 mg/kg. How it is done:
180-220g SD rats of both sexes were used and divided into random groups, with 10 rats in each group, namely a vehicle control group, a Formula I compound group (15 mg/kg, in terms of free base), a Formula V compound group (15 mg/kg, in terms of free base), a Comparative Example group (15 mg/kg, in terms of free base) and ambroxol hydrochloride (15 mg/kg, in terms of free base). The rats were fasted and restrained from water for 12 hours before testing the amount of sputum excretion, and administered the respective medicaments via the tail vein (dissolved in normal saline by adjusting pH or directly dissolved in normal saline). 30 minutes after the administration, they were anesthetized by intraperitoneally injecting 1g/kg of a urethane solution in saline, fixed in supine position, and the trachea was separated after cutting through neck skin. A small hole was pierced by using a syringe needle between the two cartilage rings on the lower edge of the thyroid cartilage, and a capillary tube (with an inner diameter of 0.8mm, and a length of 10cm) was inserted centripetally into the trachea. Sputum was collected while adjusting the angle between the capillary tube and the trachea, and the total number of the length of liquids in the capillary tube (mm) was used to evaluate the expectoration effect. The amount of expectoration of the rats within 90 minutes was recorded. Here, the medicament used for the Comparative Example group was the 4-[(2-amino-3,5-dibromobenzyl)amino]adamantan-1-ol hydrochloride (racemic) prepared in Comparative Example 1. Table 4. Results of the effect on the expectoration amount by rat capillary tube expectoration

The subject of test [3] is acute lung injury in mice induced by oleic acid. In words: acute lung injury test in mouse (oleic acid-induced, histological grading of lung pathology). The class given is in vivo, KM mice. As to the method: KM mice, weighing 18-22g, with all 66 being males, were used and randomly grouped into a normal control group, a model control group, a Formula I compound group (40 mg/kg, in terms of free base), a Formula V compound group (40 mg/kg, in terms of free base), a Comparative Example group (40 mg/kg, in terms of free base), and an ambroxol hydrochloride group (40 mg/kg, in terms of free base), 11 animals in each group, and each group was administered intravenously (dissolved in normal saline by adjusting pH or directly dissolved in normal saline) once a day for 4 times, while the model control group and the normal control group were given an equivalent amount of normal saline. 30 minutes after the last administration, except for the normal control group, all other mice were administered 300 mg/kg oleic acid intravenously (prepared into the desired concentration with sterile saline containing 0.1% […] immediately before use), and the vehicle control group was given an equivalent volume of 0.1% BSA saline. The mice were sacrificed 4 hours after the last administration, and the right lobes of the lungs were removed and fixed in a 10% formaldehyde solution. After dehydration, embedding in paraffin, dissection, and staining with HE, they were observed under a microscope for pathological changes of the lung tissues. Here, the medicament used for the Comparative Example group was the 4-[(2-amino-3,5-dibromobenzyl)amino]adamantan-1-ol hydrochloride (racemic) prepared in Comparative Example 1. Table 1. Criteria for histological grading of lung injury
The above indicators are multiplied by different weighting numbers depending on the significance of the pathology (alveolar wall thickening × 1, inflammatory cell infiltration × 1, lung tissue necrosis × 3), and finally added up to obtain an overall lung pathology score. Table 2. Test results of lung pathologies of each group

The subject of test [4] is tracheal phenol red secretion in mice. In words: phenol red expectoration test in mice. The class given is in vivo. Particulars: colorimetric measurement at 546nm; 30 mg/kg in terms of free base via tail vein 2 times in a row; x ± s, n=12; control 0.095±0.022; hydrochloride. As to the method:
Experimental method: 60 mice of both sexes were used and randomly divided into a control (normal saline) group, a Formula I compound group (30 mg/kg, in terms of free base), a Formula V compound group (30 mg/kg, in terms of free base), a Comparative Example group (30 mg/kg, in terms of free base) and ambroxol hydrochloride (30 mg/kg, in terms of free base), 12 rats in each group; the respective medicaments were administered via the tail vein (dissolved in normal saline by adjusting pH or directly dissolved in normal saline) 2 times in a row. 15 minutes after the last administration to the mice, a 5% phenol red solution in normal saline (0.5g/kg) was subcutaneously injected. After 30 minutes, the mice were sacrificed and a section of the trachea was cut from below the thyroid cartilage to the trachea branch. The section was placed in a test tube containing 1 mL of normal saline, shaken and soaked for 30 minutes, and then centrifuged for 10 minutes (3000 r/min). The supernatant was transferred to another test tube, 0.1 mL of 1M NaOH solution was added, and shaken uniformly for a colorimetric measurement at 546nm. The effects of each group on the tracheal phenol red secretion in mice were statistically compared, and the experimental results obtained are shown in Table 5 below. Here, the medicament used for the Comparative Example group was the 4-[(2-amino-3,5-dibromobenzyl)amino]adamantan-1-ol hydrochloride (racemic) prepared in Comparative Example 1. Table 5. Effects on tracheal phenol red secretion in mice (x ± s)

The mark [5] stands for this setting: number of mice (11 per group) at score 3 (Moderate), 40 mg/kg in terms of free base, intravenously once a day for 4 times, oleic acid 300 mg/kg i.v.
The mark [6] stands for this setting: number of mice (11 per group) at score 4 (Severe), 40 mg/kg in terms of free base, intravenously once a day for 4 times, oleic acid 300 mg/kg i.v.

For the compound `Nc1c(Br)cc(Br)cc1CN[C@@H]1[C@@H]2C[C@@H]3C[C@H]1C[C@@](O)(C3)C2` [Compound of Formula V, trans-4-[(2-amino-3,5-dibromobenzyl)amino]adamantan-1-ol hydrochloride], the “reduction of the number of coughs” value in test [1] (compared with the model control group (P<0.05 or P<0.01), 15 mg/kg free base i.v.) is given as “significantly reduce the number of coughs”. Moreover, in test [1] (within 3 minutes after concentrated ammonia, 15 mg/kg in terms of free base i.v., 30 minutes after administration, x ± s, n=10, model control 41.7±8.76, hydrochloride, 15 mg/kg), the “Number of coughs (times)” value worked out at 19.5±6.50 times. Further, the “Expectoration amount in 90min (mm)” value in test [2] was found to be 45.1±5.39 mm. In addition, in test [3] (group sum, weighted (alveolar wall thickening x 1, inflammatory cell infiltration x 1, lung tissue necrosis x 3), 40 mg/kg free base i.v. once a day for 4 times, model control 81, normal control 21, hydrochloride, 40 mg/kg), the “Overall lung pathology score” value was 24^**▲. Further, in test [3] (number of mice (11 per group) at score 0 (No pathological change), 40 mg/kg in terms of free base, intravenously once a day for 4 times, oleic acid 300 mg/kg i.v.), the “Alveolar wall thickening Level 0” value came out at 1. In test [3] (number of mice (11 per group) at score 0 (No pathological change), 40 mg/kg in terms of free base, intravenously once a day for 4 times, oleic acid 300 mg/kg i.v., hydrochloride), the “Inflammatory cell infiltration Level 0” value is listed as 2. Further, the “Lung tissue necrosis Level 1” value in test [3] (number of mice (11 per group) at score 1 (Occasional), 40 mg/kg in terms of free base, intravenously once a day for 4 times, oleic acid 300 mg/kg i.v.) is 0. Moreover, in test [3] (number of mice (11 per group) at score 2 (Mild), 40 mg/kg in terms of free base, intravenously once a day for 4 times, oleic acid 300 mg/kg i.v.), the “Lung tissue necrosis Level 2” value was 0. In addition, the “Inflammatory cell infiltration Level 2” value in test [3] (number of mice (11 per group) at score 2 (Mild), 40 mg/kg in terms of free base, intravenously once a day for 4 times, oleic acid 300 mg/kg i.v., hydrochloride) is recorded as 2. In addition, in test [3] (setting [5]), the “Inflammatory cell infiltration Level 3” value was determined as 0 and the “Lung tissue necrosis Level 3” value is 0. In addition, in test [3] (number of mice (11 per group) at score 3 (Moderate), 40 mg/kg in terms of free base, intravenously once a day for 4 times, oleic acid 300 mg/kg i.v., hydrochloride), the “Alveolar wall thickening Level 3” value came to 0. In addition, in test [3] (setting [6]), the “Alveolar wall thickening Level 4” value was found to be 0, the “Inflammatory cell infiltration Level 4” value turned out to be 0 and the “Lung tissue necrosis Level 4” value came out at 0. In addition, the “Phenol red secretion (OD number)” value in test [4] came to 0.278±0.054 OD number.

For the origin of these results see EP4310070A1, “USE OF TRANS AMANTADINE DERIVATIVE OR SALT THEREOF” (Chengdu Shibeikang Biomedical Technology Co., Ltd., priority 2021, dated 2022).
